Source: BindingDB's records for doi:10.3109/14756366.2012.663362 (Institute for Advanced Studies in Basic Sciences (IASBS), 2013)

What follows are compounds tested against Acetylcholinesterase (Electrophorus electricus, UniProt O42275) (assay: AChE Inhibition Assay). Details: pH 8; 25 °C.
Experimental: Inhibitory activities of synthesized α-oxycarbanilinophosphonates were determined at 25°C by the colorimetric method of Ellman et al. [Ellman et al., Biochem. Pharmacol., 7:88-95]. The assay solution contained 0.1 M phosphate buffer, pH 8, 0.3 mM 5,5'-dithiobis(2-nitrobenzoic acid) (DTNB), 0.125 units of AChE (Sigma Chemical Co. from electric eel (Electrophorous electricus)), and 0.2 mM acetylthiocholine iodide as the substrate in a total volume of 2.5 mL. In order to provide sufficient time for interaction with either PAS and/or active site of the enzyme, particularly in competition with the substrate, the synthesized compounds were added to the assay solution and preincubated with the enzyme for 10 min at 25°C. In order to solubilize the synthesized compounds, the reaction mixture contained 2% ethanol (50 μL in 2.5 mL reaction mixture volume). Control experiments were run and it was seen that no inhibitory effect was exerted on the enzyme by ethanol. The changes in abs

Sequence of Acetylcholinesterase (O42275 whole entry): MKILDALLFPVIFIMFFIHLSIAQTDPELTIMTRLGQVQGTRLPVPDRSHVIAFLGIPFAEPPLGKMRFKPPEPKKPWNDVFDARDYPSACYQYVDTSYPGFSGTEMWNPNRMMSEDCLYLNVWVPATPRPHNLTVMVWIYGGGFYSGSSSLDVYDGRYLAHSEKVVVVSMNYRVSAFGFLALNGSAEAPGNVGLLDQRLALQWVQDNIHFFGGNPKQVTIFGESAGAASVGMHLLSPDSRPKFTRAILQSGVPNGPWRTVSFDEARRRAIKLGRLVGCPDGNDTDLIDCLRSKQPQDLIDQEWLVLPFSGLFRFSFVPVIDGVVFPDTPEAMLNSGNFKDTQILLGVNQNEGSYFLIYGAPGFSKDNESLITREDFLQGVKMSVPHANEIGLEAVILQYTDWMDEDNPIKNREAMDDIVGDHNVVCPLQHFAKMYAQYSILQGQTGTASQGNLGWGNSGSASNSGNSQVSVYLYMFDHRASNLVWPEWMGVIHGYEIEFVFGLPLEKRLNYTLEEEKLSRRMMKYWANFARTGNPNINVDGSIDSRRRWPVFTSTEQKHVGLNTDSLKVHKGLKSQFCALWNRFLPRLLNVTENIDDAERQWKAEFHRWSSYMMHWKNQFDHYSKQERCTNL

Point of comparison: CCOP(=O)(OCC)C(OC(=O)Nc1ccc(C)c(Cl)c1)c1ccc(Cl)cc1Cl (stereo not given) [Diethyl[(3-chloro-4-methylanilinocarbonyl)oxy](2,4-dichlorophenyl)methyl phosphonate (4h)], IC50 6.36 µM. Against it:
- CCOP(=O)(OCC)C(OC(=O)Nc1ccccc1)c1ccc(SC)cc1 (stereo not drawn) [α-Oxycarbanilinophosphonate, 4d] — 25-fold higher, 161 µM
- CCOP(=O)(OCC)C(/C=C/c1ccccc1[N+](=O)[O-])OC(=O)Nc1ccccc1 (stereo not drawn) [α-Oxycarbanilinophosphonate, 4f] — 1.6-fold higher, 10.3 µM
- CCOP(=O)(OCC)C(OC(=O)Nc1ccc(C)c(Cl)c1)c1ccc([N+](=O)[O-])cc1 (stereo not drawn) [α-Oxycarbanilinophosphonate, 4i] — within 1.5-fold, 7.47 µM
- CCOP(=O)(OCC)C(OC(=O)NCc1ccccc1)c1cccc2ccccc12 (stereo not drawn) [α-Oxycarbanilinophosphonate, 4l] — 66-fold higher, 418 µM
